Reference: patent publication US20050101595A1, “N-containing cycloalkyl-substituted amino-thiazole derivatives and pharmaceutical compositions for inhibiting cell proliferation and methods for their use” (PFIZER INC., priority 2003, published 2005)

What was measured:
[1] = system: HCT-116 cell line; experiment: Inhibition of cell growth, tetrazolium salt (MTT) assay; format: cell-based; conditions: HCT-116 cells
How it was run: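 Growth inhibition by MTT reduction at 540 nm (0.2 mg/mL, 4 h at 37° C, formazan dissolved in DMSO), normalized to cells given only 0.5% v/v DMSO. HCT-116 cultures in McCoy's 5A were dosed 4 h post-plating and kept three to five days at 37° C, 5% CO2.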

[2] = molecular target: CDK2/Cyclin A (Homo sapiens, UniProt P24941); experiment: Inhibition of CDK2/Cyclin A Retinoblastoma Kinase Activity; format: biochemical; conditions: at 0.03 μM
How it was run: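 Radiometric filter-binding readout of phosphate transfer to an Rb substrate fragment by purified CDK2/truncated cyclin A at 10 or 19 nM. Run at pH 7.4 with 25 μM ATP, 30 °C, 60–75 min, linear rates; background without enzyme subtracted, Ki from competitive-inhibition models.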

[3] = molecular target: human CDK4 and genetically truncated (1-264) cyclin D3 (Homo sapiens, UniProt P11802); experiment: Inhibition of CDK4/Cyclin D Retinoblastoma Kinase Activity; format: biochemical; conditions: at 0.03 μM
Chain of human CDK4 and genetically truncated (1-264) cyclin D3 (P11802 whole entry, the tested form may be a part): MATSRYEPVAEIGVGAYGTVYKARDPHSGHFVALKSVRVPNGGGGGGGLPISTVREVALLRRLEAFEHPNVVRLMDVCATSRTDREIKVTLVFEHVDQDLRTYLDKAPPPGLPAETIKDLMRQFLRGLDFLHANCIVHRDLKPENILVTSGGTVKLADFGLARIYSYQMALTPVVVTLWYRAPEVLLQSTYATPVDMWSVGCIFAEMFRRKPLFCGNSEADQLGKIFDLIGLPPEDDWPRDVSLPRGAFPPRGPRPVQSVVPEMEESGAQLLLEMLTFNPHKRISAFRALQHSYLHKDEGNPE
Chain of human CDK4 and genetically truncated (1-264) cyclin D3 (P30281 1-264 partner): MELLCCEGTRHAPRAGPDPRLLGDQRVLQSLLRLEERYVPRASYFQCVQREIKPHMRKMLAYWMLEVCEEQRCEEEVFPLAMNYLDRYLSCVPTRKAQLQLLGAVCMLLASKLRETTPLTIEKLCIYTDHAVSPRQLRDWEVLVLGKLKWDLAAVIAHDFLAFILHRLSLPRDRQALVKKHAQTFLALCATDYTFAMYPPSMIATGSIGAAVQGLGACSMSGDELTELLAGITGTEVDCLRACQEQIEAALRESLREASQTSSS
How it was run: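 Apparent Ki values come from competitive or competitive tight-binding inhibition fits of background-corrected 32P/33P incorporation into His-tagged Rb fragment (386-928), captured on nitrocellulose. Reaction: 5 nM insect-cell-expressed human CDK4 with cyclin D3 (1-264), 25 μM ATP, pH 7.4 HEPES, 2% DMSO, 30° C., 20 min, extended to 60 min for tight-binding inhibitors.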

CDK2 % Inhibition at 0.03 μM [2] [%]	CDK4 % Inhibition at 0.03 μM [3] [%]	Compound	HCT-116 % Inhibition at 0.1 μM [1] [%]	HCT-116 5 Inhibition at 0.25 μM [1]
−6	34	Nc1nc(NC2CCN(C(=O)c3ccccc3OC(F)(F)F)CC2)sc1C(=O)c1c(F)cccc1F [Example R23]	2	38
20	49	Cc1nn(-c2ccccc2)nc1C(=O)N1CCC(Nc2nc(N)c(C(=O)c3c(F)cccc3F)s2)CC1 [Example R24]	5	39
17	64	Cc1onc(-c2c(Cl)cccc2Cl)c1C(=O)N1CCC(Nc2nc(N)c(C(=O)c3c(F)cccc3F)s2)CC1 [Example R26]	0	46
6	19	Nc1nc(NC2CCN(C(=O)c3cccnc3Oc3ccccc3)CC2)sc1C(=O)c1c(F)cccc1F [Example R27]	0	43
31	63	Nc1nc(NC2CCN(C(=O)c3cnc(Cl)c(Cl)c3)CC2)sc1C(=O)c1c(F)cccc1F [Example R30]	13	43
57	60	Nc1nc(NC2CCN(C(=O)c3sc4ccccc4c3Cl)CC2)sc1C(=O)c1c(F)cccc1F [Example R31]	0	42
38	65	Nc1nc(NC2CCN(C(=O)CSc3ccccc3)CC2)sc1C(=O)c1c(F)cccc1F [Example R32]	0	48
58	80	COC(=O)c1ccc(C(=O)N2CCC(Nc3nc(N)c(C(=O)c4c(F)cccc4F)s3)CC2)cc1 [Example R33]	1	49
21	17	Nc1nc(NC2CCN(C(=O)c3ccc(F)cc3C(F)(F)F)CC2)sc1C(=O)c1c(F)cccc1F [Example R36]	0	51
27	22	Nc1nc(NC2CCN(C(=O)c3c(F)ccc(F)c3F)CC2)sc1C(=O)c1c(F)cccc1F [Example R37]	0	48
24	32	Nc1nc(NC2CCN(C(=O)c3cccnc3Sc3ccccc3)CC2)sc1C(=O)c1c(F)cccc1F [Example R41]	0	41
−73	2	Nc1nc(NC2CCN(C(=O)c3cccnc3Sc3ccc(Cl)cc3)CC2)sc1C(=O)c1c(F)cccc1F [Example R43]	4	46
16	25	Nc1nc(NC2CCN(C(=O)c3cccnc3Oc3ccc(Cl)cc3)CC2)sc1C(=O)c1c(F)cccc1F [Example R44]	0	41
71	83	Nc1nc(NC2CCN(C(=O)c3ccno3)CC2)sc1C(=O)c1c(F)cccc1F [Example R46]	0.47	37
−7	20	Cc1c(S(=O)(=O)c2ccc(Cl)cc2)csc1C(=O)N1CCC(Nc2nc(N)c(C(=O)c3c(F)cccc3F)s2)CC1 [Example R47]	8	45
16	32	Cc1nn(C)c2ccc(C(=O)N3CCC(Nc4nc(N)c(C(=O)c5c(F)cccc5F)s4)CC3)c(Cl)c12 [Example R48]	0	50
34	55	COc1c(C(=O)N2CCC(Nc3nc(N)c(C(=O)c4c(F)cccc4F)s3)CC2)csc1Cl [Example R49]	0	61
51	44	COc1c(C(=O)N2CCC(Nc3nc(N)c(C(=O)c4c(F)cccc4F)s3)CC2)csc1Br [Example R50]	0	48
62	48	Nc1nc(NC2CCN(C(=O)c3sccc3Cl)CC2)sc1C(=O)c1c(F)cccc1F [Example R51]	0	37
14	8	Nc1nc(NC2CCN(C(=O)c3c(Cl)cc(Cl)cc3Cl)CC2)sc1C(=O)c1c(F)cccc1F [Example R56]	0	43
23	36	Nc1nc(NC2CCN(C(=O)c3csc(C4COc5ccccc5O4)n3)CC2)sc1C(=O)c1c(F)cccc1F (centres unmarked) [Example R57]	0	47

More lines, now with the values behind:

Compound	CDK2 % Inhibition at 0.03 μM [2] [%]	CDK4 % Inhibition at 0.03 μM [3] [%]	HCT-116 % Inhibition at 0.1 μM [1] [%]	HCT-116 5 Inhibition at 0.25 μM [1]
Cc1noc(C)c1C(=O)N1CCC(Nc2nc(N)c(C(=O)c3c(F)cccc3F)s2)CC1 [Example R25]	−9	22	0	43
CCCSc1ncccc1C(=O)N1CCC(Nc2nc(N)c(C(=O)c3c(F)cccc3F)s2)CC1 [Example R28]	58	66	0	41
Cc1cc(C)c2c(c1C(=O)N1CCC(Nc3nc(N)c(C(=O)c4c(F)cccc4F)s3)CC1)CC(C)(C)C2=O [Example R29]	2	23	0	36
Nc1nc(NC2CCN(C(=O)c3ccc4c(c3)C(=O)c3ccccc3C4=O)CC2)sc1C(=O)c1c(F)cccc1F [Example R34]	35	60	0	55
Nc1nc(NC2CCN(C(=O)c3ccc(C(F)(F)F)cc3F)CC2)sc1C(=O)c1c(F)cccc1F [Example R35]	19	21	0	49
Nc1nc(NC2CCN(C(=O)c3ccc(C(F)(F)F)cc3C(F)(F)F)CC2)sc1C(=O)c1c(F)cccc1F [Example R38]	0	35	0	33
COC(C(=O)N1CCC(Nc2nc(N)c(C(=O)c3c(F)cccc3F)s2)CC1)(c1ccccc1)C(F)(F)F (centres unmarked) [Example R39]	−6	16	5	51
COc1ccc(Oc2ccc([N+](=O)[O-])cc2C(=O)N2CCC(Nc3nc(N)c(C(=O)c4c(F)cccc4F)s3)CC2)cc1 [Example R40]	41	66	0	43
Cc1ccc(Sc2ncccc2C(=O)N2CCC(Nc3nc(N)c(C(=O)c4c(F)cccc4F)s3)CC2)cc1 [Example R42]	49	53	0	48
Cc1ccc(Oc2ncccc2C(=O)N2CCC(Nc3nc(N)c(C(=O)c4c(F)cccc4F)s3)CC2)cc1 [Example R45]	37	49	2	36
Nc1nc(NC2CCN(C(=O)c3cnn(-c4ccccc4)c3C(F)(F)F)CC2)sc1C(=O)c1c(F)cccc1F [Example R52]	5	23	2	49
Nc1nc(NC2CCN(C(=O)c3c(F)cc(F)cc3F)CC2)sc1C(=O)c1c(F)cccc1F [Example R53]	24	32	0	30
Nc1nc(NC2CCN(C(=O)C34CC5CC(CC(C5)C3)C4)CC2)sc1C(=O)c1c(F)cccc1F [Example R54]	21	38	0	39
Nc1nc(NC2CCN(C(=O)c3cc(C(F)(F)F)ccc3C(F)(F)F)CC2)sc1C(=O)c1c(F)cccc1F [Example R55]	11	37	5	51
